Experimental data taken from PubChem BioAssay AID1963974 (Molecular Pharmacology Branch, DTP, NCI, 2024).

Tested on: 648629-189-R-J1-PDC spheroids with HUVEC/MSC, viability
Test: Anticancer human tumor 648629-189-R-J1-PDC patient-derived bladder carcinoma cell line growth inhibition [PI3K]
Conditions: for viability, T/C: stronger effect = lower value
Procedure, shortened: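 Spheroid viability read-out. Co-cultures contained the tumor line plus HUVEC and human MSCs. Each agent was paired with a PI3K inhibitor (inavolisib, alpelisib, duvelisib, copanlisib) across half-log dilutions starting at clinical Cmax, or at 10 microM when Cmax was unknown.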

[1] = curve of first compound, second compound 0.0316 µM
[2] = curve of first compound, second compound 0.1 µM
[3] = curve of first compound, second compound 0.316 µM
[4] = curve of first compound, second compound 1 µM
[5] = curve of first compound, second compound 3.16 µM
[6] = curve of first compound, second compound 10 µM
[7] = second compound 0.0316 µM, first compound 0.0316 µM
[8] = second compound 0.0316 µM, first compound 0.1 µM
[9] = second compound 0.0316 µM, first compound 0.316 µM
[10] = second compound 0.0316 µM, first compound 1 µM
[11] = second compound 0.0316 µM, first compound 3.16 µM
[12] = second compound 0.0316 µM, first compound 10 µM
[13] = second compound 0.1 µM, first compound 0.0316 µM
[14] = second compound 0.1 µM, first compound 0.1 µM
[15] = second compound 0.1 µM, first compound 0.316 µM
[16] = second compound 0.1 µM, first compound 1 µM
[17] = second compound 0.1 µM, first compound 3.16 µM
[18] = second compound 0.1 µM, first compound 10 µM
[19] = second compound 0.316 µM, first compound 0.0316 µM
[20] = second compound 0.316 µM, first compound 0.1 µM
[21] = second compound 0.316 µM, first compound 0.316 µM
[22] = second compound 0.316 µM, first compound 1 µM
[23] = second compound 0.316 µM, first compound 3.16 µM
[24] = second compound 0.316 µM, first compound 10 µM
[25] = second compound 1 µM, first compound 0.0316 µM
[26] = second compound 1 µM, first compound 0.1 µM
[27] = second compound 1 µM, first compound 0.316 µM
[28] = second compound 1 µM, first compound 1 µM
[29] = second compound 1 µM, first compound 3.16 µM
[30] = second compound 1 µM, first compound 10 µM
[31] = second compound 3.16 µM, first compound 0.0316 µM
[32] = second compound 3.16 µM, first compound 0.1 µM
[33] = second compound 3.16 µM, first compound 0.316 µM
[34] = second compound 3.16 µM, first compound 1 µM
[35] = second compound 3.16 µM, first compound 3.16 µM
[36] = second compound 3.16 µM, first compound 10 µM
[37] = second compound 10 µM, first compound 0.0316 µM
[38] = second compound 10 µM, first compound 0.1 µM
[39] = second compound 10 µM, first compound 0.316 µM
[40] = second compound 10 µM, first compound 1 µM
[41] = second compound 10 µM, first compound 3.16 µM
[42] = second compound 10 µM, first compound 10 µM
[43] = curve of first compound, second compound 0.00316 µM
[44] = curve of first compound, second compound 0.01 µM
[45] = second compound 0.00316 µM, first compound 0.0316 µM
[46] = second compound 0.00316 µM, first compound 0.1 µM
[47] = second compound 0.00316 µM, first compound 0.316 µM
[48] = second compound 0.00316 µM, first compound 1 µM
[49] = second compound 0.00316 µM, first compound 3.16 µM
[50] = second compound 0.00316 µM, first compound 10 µM
[51] = second compound 0.01 µM, first compound 0.0316 µM
[52] = second compound 0.01 µM, first compound 0.1 µM
[53] = second compound 0.01 µM, first compound 0.316 µM
[54] = second compound 0.01 µM, first compound 1 µM
[55] = second compound 0.01 µM, first compound 3.16 µM
[56] = second compound 0.01 µM, first compound 10 µM
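Further: spheroids exposed to agents for seven days before reading.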
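Wherever viability, T/C is given: percent of vehicle control luminescence where 100% = DMSO treated spheroids.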

In the case of `CC(Cn1ccc(-c2ccc(C#N)c(Cl)c2)n1)NC(=O)c1cc(C(C)O)[nH]n1` (stereo not given) + CC(Nc1ncnc2nc[nH]c12)c1cc2cccc(Cl)c2c(=O)n1-c1ccccc1, the IC50 [1] is reported as > 10 µM, the IC50 [2] is reported as > 10 µM and the IC50 [3] is reported as > 10 µM. For the same molecule, the IC50 [4] was > 10 µM, the IC50 [5] was > 10 µM and the IC50 [6] was > 10 µM. It also gave a viability, T/C [7] of 99.4%, a viability, T/C [8] of 91.1% and a viability, T/C [9] of 116%. For the same molecule, the viability, T/C [10] was 94%, the viability, T/C [11] was 105% and the viability, T/C [12] was 84.5%. It also gave a viability, T/C [13] of 99%, a viability, T/C [14] of 89.3% and a viability, T/C [15] of 115%. For the same molecule, the viability, T/C [16] was 108%, the viability, T/C [17] was 108% and the viability, T/C [18] was 80.5%. For the same molecule, the viability, T/C [19] was 97.9%, the viability, T/C [20] was 99% and the viability, T/C [21] was 95.2%. For the same molecule, the viability, T/C [22] was 119%, the viability, T/C [23] was 99.4% and the viability, T/C [24] was 87.3%. The viability, T/C [25] was 107%, the viability, T/C [26] was 93.8% and the viability, T/C [27] was 106%. It also gave a viability, T/C [28] of 113%, a viability, T/C [29] of 90.8% and a viability, T/C [30] of 80%. For the same molecule, the viability, T/C [31] was 92.2%, the viability, T/C [32] was 96% and the viability, T/C [33] was 94.7%. For the same molecule, the viability, T/C [34] was 91.3%, the viability, T/C [35] was 92.4% and the viability, T/C [36] was 69.5%. For the same molecule, the viability, T/C [37] was 78.4%, the viability, T/C [38] was 93.3% and the viability, T/C [39] was 86.8%. It also gave a viability, T/C [40] of 79.7%, a viability, T/C [41] of 89.7% and a viability, T/C [42] of 69%.

In the case of `CC(Cn1ccc(-c2ccc(C#N)c(Cl)c2)n1)NC(=O)c1cc(C(C)O)[nH]n1` (stereo not given) + CC(Nc1ccc2c(c1)OCCn1cc(N3C(=O)OCC3C(F)F)nc1-2)C(N)=O, the IC50 [43] is reported as > 10 µM, the IC50 [44] is reported as > 10 µM and the IC50 [1] is reported as > 10 µM. For the same molecule, the IC50 [2] was > 10 µM, the IC50 [3] was > 10 µM and the IC50 [4] was > 10 µM. It also gave a viability, T/C [45] of 99.9%, a viability, T/C [46] of 97.1% and a viability, T/C [47] of 92.5%. For the same molecule, the viability, T/C [48] was 90.1%, the viability, T/C [49] was 85.7% and the viability, T/C [50] was 68.3%. It also gave a viability, T/C [51] of 92.7%, a viability, T/C [52] of 97.2% and a viability, T/C [53] of 92.9%. For the same molecule, the viability, T/C [54] was 88.3%, the viability, T/C [55] was 89.9% and the viability, T/C [56] was 70.4%. The viability, T/C [7] was 97.2%, the viability, T/C [8] was 98.7% and the viability, T/C [9] was 95.2%. For the same molecule, the viability, T/C [10] was 83.5%, the viability, T/C [11] was 83.8% and the viability, T/C [12] was 75.5%. The viability, T/C [13] was 106%, the viability, T/C [14] was 86.9% and the viability, T/C [15] was 85.8%. It also gave a viability, T/C [16] of 86.2%, a viability, T/C [17] of 84.5% and a viability, T/C [18] of 72%. The viability, T/C [19] was 83.8%, the viability, T/C [20] was 87.5% and the viability, T/C [21] was 78.1%. The viability, T/C [22] was 94.2%, the viability, T/C [23] was 72.8% and the viability, T/C [24] was 58.2%. The viability, T/C [25] was 73.2%, the viability, T/C [26] was 71.6% and the viability, T/C [27] was 61.5%. For the same molecule, the viability, T/C [28] was 67.6%, the viability, T/C [29] was 60% and the viability, T/C [30] was 57.9%.

`Cn1nccc1Nc1nccc(-c2ccn(C(CO)c3ccc(Cl)c(F)c3)c(=O)c2)n1` (stereo not given) + Cc1nc(NC(=O)N2CCCC2C(N)=O)sc1-c1ccnc(C(C)(C)C(F)(F)F)c1 was tested, and the IC50 [1] was > 10 µM, the IC50 [2] was > 10 µM and the IC50 [3] was > 10 µM. For the same molecule, the IC50 [4] was > 10 µM, the IC50 [5] was > 10 µM and the IC50 [6] was < 0.0316 µM. It also gave a viability, T/C [7] of 120%, a viability, T/C [8] of 96.2% and a viability, T/C [9] of 112%. It also gave a viability, T/C [10] of 112%, a viability, T/C [11] of 111% and a viability, T/C [12] of 74.7%. For the same molecule, the viability, T/C [13] was 93.5%, the viability, T/C [14] was 105% and the viability, T/C [15] was 108%. For the same molecule, the viability, T/C [16] was 104%, the viability, T/C [17] was 96.1% and the viability, T/C [18] was 79.2%. It also gave a viability, T/C [19] of 94.3%, a viability, T/C [20] of 97.6% and a viability, T/C [21] of 98.1%. For the same molecule, the viability, T/C [22] was 102%, the viability, T/C [23] was 92.8% and the viability, T/C [24] was 75.4%. For the same molecule, the viability, T/C [25] was 83.3%, the viability, T/C [26] was 79.4% and the viability, T/C [27] was 72.8%. For the same molecule, the viability, T/C [28] was 85.7%, the viability, T/C [29] was 82.2% and the viability, T/C [30] was 70.6%. For the same molecule, the viability, T/C [31] was 64.4%, the viability, T/C [32] was 63.1% and the viability, T/C [33] was 56.8%. It also gave a viability, T/C [34] of 72.1%, a viability, T/C [35] of 67.1% and a viability, T/C [36] of 67.1%. The viability, T/C [37] was 40.2%, the viability, T/C [38] was 39.5% and the viability, T/C [39] was 41.5%. The viability, T/C [40] was 45.5%, the viability, T/C [41] was 54.9% and the viability, T/C [42] was 55.1%.

`COc1c(OCCCN2CCOCC2)ccc2c3n(c(=NC(=O)c4cnc(N)nc4)nc12)CCN3` was tested, and the viability, T/C (compound 0.00316 µM) was 108% [middle of 8 runs], the viability, T/C (compound 0.01 µM) was 103% [middle of 8 runs] and the viability, T/C (compound 0.0316 µM) was 97.5% [middle of 8 runs]. For the same molecule, the viability, T/C (compound 0.1 µM) was 64.5% [middle of 8 runs], the viability, T/C (compound 0.316 µM) was 18.6% [middle of 8 runs] and the viability, T/C (compound 1 µM) was 3.42% [middle of 8 runs]. For the same molecule, the IC50 (compound alone, run of 04/25/2023) was 144 nM [middle of 7 runs].

For `Cn1nccc1Nc1nccc(-c2ccn(C(CO)c3ccc(Cl)c(F)c3)c(=O)c2)n1` (stereo not given) + CC(Nc1ccc2c(c1)OCCn1cc(N3C(=O)OCC3C(F)F)nc1-2)C(N)=O, the IC50 [43] was > 10 µM, the IC50 [44] was > 10 µM and the IC50 [1] was > 10 µM. The IC50 [2] was > 10 µM, the IC50 [3] was > 10 µM and the IC50 [4] was > 10 µM. It also gave a viability, T/C [45] of 103%, a viability, T/C [46] of 105% and a viability, T/C [47] of 111%. It also gave a viability, T/C [48] of 109%, a viability, T/C [49] of 109% and a viability, T/C [50] of 79.3%. It also gave a viability, T/C [51] of 111%, a viability, T/C [52] of 93% and a viability, T/C [53] of 102%. The viability, T/C [54] was 108%, the viability, T/C [55] was 105% and the viability, T/C [56] was 81.2%. It also gave a viability, T/C [7] of 107%, a viability, T/C [8] of 101% and a viability, T/C [9] of 97.4%. For the same molecule, the viability, T/C [10] was 103%, the viability, T/C [11] was 106% and the viability, T/C [12] was 79.1%. It also gave a viability, T/C [13] of 97.2%, a viability, T/C [14] of 97.5% and a viability, T/C [15] of 84.9%. The viability, T/C [16] was 103%, the viability, T/C [17] was 85.1% and the viability, T/C [18] was 73%. The viability, T/C [19] was 82.1%, the viability, T/C [20] was 86% and the viability, T/C [21] was 82.7%. The viability, T/C [22] was 99.8%, the viability, T/C [23] was 78.3% and the viability, T/C [24] was 68.8%. It also gave a viability, T/C [25] of 66.2%, a viability, T/C [26] of 67% and a viability, T/C [27] of 70.3%. It also gave a viability, T/C [28] of 76.3%, a viability, T/C [29] of 73% and a viability, T/C [30] of 62.3%.
